The target in one test is T1, mGluR5 receptors (Rattus norvegicus, UniProt P31424).
T1 construct: Primary astrocyte cultures are prepared from cortices of newborn rats; endogenous in cells; host or cells: primary rat cortical astrocytes (Sprague-Dawley pups)
Briefly: Cytosolic calcium studies with cultured rat astrocytes. The test is classed as cell-based. As to the method:
Primary astrocyte cultures are prepared from cortices of newborn rats as described by Booher and Sensenbrenner (1972, Neurobiology 2(3):97-105). Briefly, Sprague-Dawley rat pups (2-4 d old) are decapitated and neocortices are dissected, disintegrated with a nylon filter (pore size 80 μm) and carefully triturated. The cell suspension is plated on poly-D-lysine pre-coated flasks (Costar, Netherlands) and cultivated in Dulbecco's Modified Eagle's Medium (DMEM, Invitrogen, Germany) supplemented with 10% foetal calf serum (FCS, Sigma, Germany), 4 mM glutamine and […] gentamycin (both Biochrom, Germany) at 37° C. in a humidified atmosphere of 5% CO2/95% air for 7 days with exchanging the medium at day 2 and 6.
After 7 days in vitro (DIV), cells are shaken overnight at 250 rpm to remove oligodendrocytes and microglia. The next day, astrocytes are rinsed twice with CMF-PBS (calcium- and magnesium-free phosphate buffered saline, Biochrom, Germany), trypsinized and subplated on poly-D-lysine pre-coated 96-well plates (Greiner, Germany) at a density of 40,000 cells/well. 24 h after establishing the secondary culture the astrocytes are rinsed with PBS″ (phosphate buffered saline, Biochrom, Germany) and fed with astrocyte-defined medium (ADM) consisting of DMEM containing 1× G5-supplement (Invitrogen, Germany), 0.5 μg/ml heparan sulfate, and 1.5 μg/ml fibronectin (both Sigma, Germany) (Miller et al., (1993) Brain Res. 618(1):175-8). 3 days later the medium is exchanged and the cells incubated for another 2-3 days, so that at the time of experiments astrocytes are 14-15 DIV.
The increase of cytosolic calcium after stimulation with the mGluR5 agonist L-quisqualate is measured using a fluorometric imaging plate reader (FLIPR) and the Ca-Kit (both Molecular Devices). Prior to addition of agonist or antagonist the medium is aspirated and cells are loaded for 2 h at RT with 150 μl of loading buffer consisting of Ca-sensitive dye reconstituted in sodium chloride (123 mM), potassium chloride (5.4 mM), magnesium chloride (0.8 mM), calcium chloride (1.8 mM), D-glucose (15 mM), and HEPES (20 mM), pH 7.3. Subsequently, plates are transferred to FLIPR to detect calcium increase with the addition of L-quisqualate (100 nM) measured as relative fluorescence units (RFU). If antagonists are tested, these compounds are pre-incubated for 10 minutes at RT before addition of the respective agonist.
Thereafter, concentration-response curves for the positive modulator are performed in the presence of a fixed concentration of quisqualate showing the biggest window for potentiation (normally 10-30 nM).
(§1) The fluorescence signal increase after addition of agonist reflects the increase of cytosolic calcium. Inconsistencies in the amount of cells per well are normalised by using the spatial uniformity correction of the FLIPR operating software Screenworks. The mean of replicated temporal data (n=3-5) is calculated and used for graphical representation. For the evaluation of the pharmacology, the calcium changes in response to different concentrations of agonist or antagonist are determined using a maximum minus minimum (MaxMin) calculation.
(§2) All responses (RFU-values) are determined as percentage of control (=maximum response). EC50 and IC50 are calculated according the logistic equation using Prism 4.0 (GraphPad Software, USA).

For test [1], the target named is T2, human metabotropic glutamate receptor mGluR5 (Homo sapiens, UniProt P41594).
T2 construct: expressed in transfected cells; host or cells: CHO-K1
T2 sequence (P41594 21-1212): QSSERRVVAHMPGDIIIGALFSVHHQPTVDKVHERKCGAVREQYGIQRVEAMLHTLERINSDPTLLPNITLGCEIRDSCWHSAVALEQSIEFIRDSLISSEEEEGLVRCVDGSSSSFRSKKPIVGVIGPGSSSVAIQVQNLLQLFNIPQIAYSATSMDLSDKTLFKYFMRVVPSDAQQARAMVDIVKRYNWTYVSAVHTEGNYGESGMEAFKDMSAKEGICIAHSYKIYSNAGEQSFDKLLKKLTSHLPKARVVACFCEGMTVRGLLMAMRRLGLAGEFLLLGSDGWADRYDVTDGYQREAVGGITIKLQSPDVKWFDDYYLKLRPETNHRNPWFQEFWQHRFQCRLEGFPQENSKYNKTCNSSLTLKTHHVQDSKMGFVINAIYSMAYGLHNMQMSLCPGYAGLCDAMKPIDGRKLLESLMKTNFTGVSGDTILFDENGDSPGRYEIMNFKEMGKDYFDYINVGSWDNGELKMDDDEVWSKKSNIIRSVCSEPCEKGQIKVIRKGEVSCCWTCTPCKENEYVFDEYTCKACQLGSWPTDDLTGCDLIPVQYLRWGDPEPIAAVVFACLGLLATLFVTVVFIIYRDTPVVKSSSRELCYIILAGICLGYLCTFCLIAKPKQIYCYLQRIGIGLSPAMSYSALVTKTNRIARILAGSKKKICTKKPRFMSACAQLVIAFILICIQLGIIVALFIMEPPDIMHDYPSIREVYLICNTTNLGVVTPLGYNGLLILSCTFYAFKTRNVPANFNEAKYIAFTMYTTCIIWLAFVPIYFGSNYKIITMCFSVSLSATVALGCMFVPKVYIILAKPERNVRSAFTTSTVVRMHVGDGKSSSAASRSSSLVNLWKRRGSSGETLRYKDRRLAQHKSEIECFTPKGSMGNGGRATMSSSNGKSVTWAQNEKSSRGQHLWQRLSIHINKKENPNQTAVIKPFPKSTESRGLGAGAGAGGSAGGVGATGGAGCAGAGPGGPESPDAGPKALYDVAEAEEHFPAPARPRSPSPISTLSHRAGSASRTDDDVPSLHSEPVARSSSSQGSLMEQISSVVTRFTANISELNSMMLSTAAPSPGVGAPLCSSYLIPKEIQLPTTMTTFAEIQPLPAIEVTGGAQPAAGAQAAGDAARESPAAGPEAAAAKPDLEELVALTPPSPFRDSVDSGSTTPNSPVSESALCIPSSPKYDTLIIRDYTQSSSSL
The test can be described thus: Cytosolic calcium studies with stably transfected cells (CHO-K1). Format: cell-based. The procedure:
Functional Assay of mGluR5 Receptors Cytosolic Calcium Studies with Stably Transfected Cells
Chinese hamster ovary cells (CHO-K1 cells), stably transfected for inducible expression of a human metabotropic glutamate receptor mGluR5, are seeded into black clear bottom 96 well plates at a density of 35.000 cells per well. The standard growth medium used (Dulbecco's modified Eagle Medium, DMEM plus L-proline) contains the appropriate inducer isopropyl-β-D-thiogalactopyranosid (IPTG) to achieve optimal receptor expression. One day after seeding the growth medium is exchanged for reconstituted Ca-Kit (Molecular Devices, USA) and incubated for one hour. Ca-Kit is reconstituted in an assay buffer containing 20 mM HEPES pH 7.4, glutamic-pyruvate transaminase, pyridoxal phosphate and sodium pyruvate in Hank's balanced salt solution (HBBS). Agonistic compounds to the receptor elicit increases in cytosolic calcium which can be measured as increases in fluorescence signals by use of a fluorescence imaging plate reader (Molecular Devices). […] Similarly, for the characterization of positive allosteric modulators, a dilution series of the test compound is added online to 384 well plates containing the described dye loaded cells and after a preincubation time of 5 minutes stimulated by a basal cell concentration of the agonist L-glutamate giving about 20% of the maximal signal.
as §1, §2

T1 sequence (P31424 21-1203): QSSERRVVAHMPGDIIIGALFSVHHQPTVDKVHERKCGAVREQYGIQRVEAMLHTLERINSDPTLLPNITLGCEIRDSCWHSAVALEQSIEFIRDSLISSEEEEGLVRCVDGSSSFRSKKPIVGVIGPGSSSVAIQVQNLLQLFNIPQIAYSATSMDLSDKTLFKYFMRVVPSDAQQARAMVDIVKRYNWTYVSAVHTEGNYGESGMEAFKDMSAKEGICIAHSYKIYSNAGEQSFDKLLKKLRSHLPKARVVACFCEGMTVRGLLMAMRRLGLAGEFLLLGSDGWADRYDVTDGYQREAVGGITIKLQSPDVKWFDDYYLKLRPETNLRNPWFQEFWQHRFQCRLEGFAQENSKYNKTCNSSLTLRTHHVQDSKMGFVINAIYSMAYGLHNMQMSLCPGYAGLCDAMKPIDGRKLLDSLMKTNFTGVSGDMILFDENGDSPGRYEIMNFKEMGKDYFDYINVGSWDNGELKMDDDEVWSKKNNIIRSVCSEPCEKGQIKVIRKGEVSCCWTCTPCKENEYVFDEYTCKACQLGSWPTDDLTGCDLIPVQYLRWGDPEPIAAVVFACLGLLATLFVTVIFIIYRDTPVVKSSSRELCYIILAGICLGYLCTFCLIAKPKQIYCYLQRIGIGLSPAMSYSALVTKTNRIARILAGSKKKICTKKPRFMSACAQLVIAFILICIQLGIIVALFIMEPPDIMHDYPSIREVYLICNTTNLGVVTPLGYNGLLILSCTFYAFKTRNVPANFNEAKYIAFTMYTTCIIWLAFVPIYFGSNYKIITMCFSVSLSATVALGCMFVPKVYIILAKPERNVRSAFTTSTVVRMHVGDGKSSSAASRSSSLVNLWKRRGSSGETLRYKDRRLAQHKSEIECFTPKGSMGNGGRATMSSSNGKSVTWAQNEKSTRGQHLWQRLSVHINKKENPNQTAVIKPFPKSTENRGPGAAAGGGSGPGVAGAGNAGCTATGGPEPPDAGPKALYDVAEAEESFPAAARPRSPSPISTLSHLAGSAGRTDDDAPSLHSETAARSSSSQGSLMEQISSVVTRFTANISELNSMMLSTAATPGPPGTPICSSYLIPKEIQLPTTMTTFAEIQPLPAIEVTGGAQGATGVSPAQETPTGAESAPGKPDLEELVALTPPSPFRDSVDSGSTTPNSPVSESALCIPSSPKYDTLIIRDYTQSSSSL

The EC50 is the concentration giving half of the maximal effect. Regarding `O=C(c1cc2ccc(C#Cc3ccccc3)cn2n1)N1CCCCC1` [Example 32, (6-Phenylethynyl-pyrazolo[1,5-a]pyridin-2-yl)-piperidin-1-yl-methanone], the EC50 was 480 nM on mGluR5 receptors and 250 nM in test [1].

For the compound `C(#Cc1ccc2ncnn2c1)c1ccccc1` [Example 37, 6-Phenylethynyl-[1,2,4]triazolo[1,5-a]pyridine], the EC50 (on mGluR5 receptors; in test [1]) was 110 nM in each case.

Consider `Cc1ccccc1C#Cc1cnc2cccnc2c1` [Example 94, 3-(o-Tolylethynyl)-[1,5]naphthyridine], for which the figures for the 50% effective concentration (EC50) (on mGluR5 receptors; in test [1]) were 210 nM and 410 nM, respectively.

Consider `Fc1ccccc1C#Cc1ccc2ncnn2c1` [Example 54, 6-(2-Fluoro-phenylethynyl)-[1,2,4]triazolo[1,5-a]pyridine], for which the concentration giving a half-maximal response (EC50) on mGluR5 receptors worked out at 470 nM; in test [1], 740 nM.

As to `Fc1cc(F)cc(C#Cc2cnc3ncsc3c2)c1` [Example 80, 6-((3,5-Difluorophenyl)ethynyl)thiazolo[4,5-b]pyridine], the EC50 on mGluR5 receptors turned out to be 440 nM; in test [1], 660 nM.

For the compound `Fc1cccc(C#Cc2cnc3ncsc3c2)c1` [Example 44, 6-(3-Fluoro-phenylethynyl)-thiazolo[4,5-b]pyridine], the EC50 worked out at 37 nM on mGluR5 receptors and 23 nM in test [1].

Take `Cc1cccc(C#Cc2cnc3ncsc3c2)c1` [Example 73, 6-(m-Tolylethynyl)thiazolo[4,5-b]pyridine]: the results for the 50% effective concentration (EC50) (at mGluR5 receptors; in test [1]) were 14 nM and 20 nM, respectively.

Regarding `C(#Cc1cnc2nccnc2c1)C1=CCCCC1` [Example 40, 7-Cyclohex-1-enylethynyl-pyrido[2,3-b]pyrazine], the EC50 at mGluR5 receptors was 650 nM; in test [1], 120 nM.

Consider `C(#Cc1cnc2ccnn2c1)C1=CCCCC1` [Example 8, 6-Cyclohex-1-enylethynyl-pyrazolo[1,5-a]pyrimidine], for which the 50% effective concentration (EC50) turned out to be 70 nM on mGluR5 receptors and 23 nM in test [1].

`C(#Cc1cnc2nccnc2c1)c1ccccc1` [Example 39, 7-Phenylethynyl-pyrido[2,3-b]pyrazine]: the EC50 amounted to 100 nM on mGluR5 receptors and 35 nM in test [1].

`Fc1ccc(C#Cc2ccc3ncnn3c2)cc1` [Example 55, 6-(4-Fluoro-phenylethynyl)-[1,2,4]triazolo[1,5-a]pyridine]: the concentration giving a half-maximal response (EC50) at mGluR5 receptors amounted to 400 nM; in test [1], 640 nM.

Take `Cc1cccc(C#Cc2cnc3cccnc3c2)c1` [Example 95, 3-(m-Tolylethynyl)-[1,5]naphthyridine]: the EC50 on mGluR5 receptors came out at 2.3 nM; in test [1] it was 5.5 nM.

For the compound `Fc1ccccc1C#Cc1cnc2ncsc2c1` [Example 45, 6-(2-Fluoro-phenylethynyl)-thiazolo[4,5-b]pyridine], the half-maximal effective concentration (EC50) was 56 nM on mGluR5 receptors and 65 nM in test [1].

Consider `Fc1ccc(C#Cc2cnc3ncsc3c2)c(F)c1` [Example 79, 6-((2,4-Difluorophenyl)ethynyl)thiazolo[4,5-b]pyridine], for which the EC50 on mGluR5 receptors turned out to be 220 nM; in test [1], 310 nM.

With `O=C(c1nc2ncc(C#CC3=CCCCC3)cc2o1)N1CCCCC1` [Example 72, (6-Cyclohex-1-enylethynyl-oxazolo[4,5-b]pyridin-2-yl)-piperidin-1-yl-methanone], the 50% effective concentration (EC50) was 320 nM on mGluR5 receptors and 330 nM in test [1].

On to `Fc1ccc(C#Cc2cnc3ccnn3c2)cc1` [Example 4, 6-(4-Fluoro-phenylethynyl)-pyrazolo[1,5-a]pyrimidine], for which the values for the concentration for a half-maximal effect (EC50) (on mGluR5 receptors; in test [1]) were 63 nM and 120 nM, respectively.

In the case of `C(#Cc1cnc2ncnn2c1)c1ccccc1` [Example 33, 6-Phenylethynyl-[1,2,4]triazolo[1,5-a]pyrimidine], the EC50 is 230 nM at mGluR5 receptors and 130 nM in test [1].

On to `O=C(c1nc2ncc(C#Cc3ccccc3)cc2o1)N1CCCCC1` [Example 43, (6-Phenylethynyl-oxazolo[4,5-b]pyridin-2-yl)-piperidin-1-yl-methanone], for which the 50% effective concentration (EC50) at mGluR5 receptors turned out to be 60 nM; in test [1], 150 nM.

In the case of `C(#Cc1cnc2cccnc2c1)c1ccncc1` [Example 100, 3-(Pyridin-4-ylethynyl)-1,5-naphthyridine], the EC50 was 310 nM at mGluR5 receptors and 230 nM in test [1].

With `C(#Cc1cnc2ccnn2c1)c1ccccc1` [Example 1, 6-Phenylethynyl-pyrazolo[1,5-a]pyrimidine], the values for the concentration for a half-maximal effect (EC50) (on mGluR5 receptors; in test [1]) were 89 nM and 38 nM, respectively.

Turning to `C(#Cc1cnc2ncsc2c1)c1ccccc1` [Example 38, 6-Phenylethynyl-thiazolo[4,5-b]pyridine], the figures for the EC50 (on mGluR5 receptors; in test [1]) were 73 nM and 10 nM, respectively.

On to `Fc1ccc(C#Cc2cnc3cccnc3c2)cc1` [Example 69, 3-(4-Fluoro-phenylethynyl)-[1,5]naphthyridine], for which the EC50 at mGluR5 receptors was 12 nM; in test [1], 9.8 nM.

As to `Fc1ccccc1C#Cc1cnc2cccnc2c1` [Example 68, 3-(2-Fluoro-phenylethynyl)-[1,5]naphthyridine], the EC50 at mGluR5 receptors was 24 nM; in test [1], 19 nM.

Consider `Fc1ccc(C#Cc2cnc3nccnc3c2)cc1` [Example 62, 7-(4-Fluoro-phenylethynyl)-pyrido[2,3-b]pyrazine], for which the EC50 on mGluR5 receptors was determined as 730 nM; in test [1], 550 nM.

For the compound `Cc1ccc(C#Cc2cnc3cccnc3c2)cc1` [Example 93, 3-(p-Tolylethynyl)-[1,5]naphthyridine], the concentration for a half-maximal effect (EC50) at mGluR5 receptors was 77 nM; in test [1] it was 36 nM.

Turning to `Cc1ccccc1C#Cc1cnc2ncsc2c1` [Example 75, 6-(o-Tolylethynyl)thiazolo[4,5-b]pyridine], the EC50 on mGluR5 receptors was 530 nM; in test [1], 2300 nM.

Turning to `Fc1cccc(C#Cc2cnc3ncnn3c2)c1` [Example 47, 6-(3-Fluoro-phenylethynyl)-[1,2,4]triazolo[1,5-a]pyrimidine], the EC50 at mGluR5 receptors worked out at 1500 nM; in test [1] it was 1300 nM.

With `Fc1cccc(C#Cc2cnc3ccnn3c2)c1` [Example 3, 6-(3-Fluoro-phenylethynyl)-pyrazolo[1,5-a]pyrimidine], the concentration for a half-maximal effect (EC50) on mGluR5 receptors came out at 76 nM; in test [1], 21 nM.

Consider `Fc1cccc(C#Cc2cnc3cccnc3c2)c1` [Example 67, 3-(3-Fluoro-phenylethynyl)-[1,5]naphthyridine], for which the values for the half-maximal effective concentration (EC50) (on mGluR5 receptors; in test [1]) were 8.6 nM and 6.8 nM, respectively.
